Like-named read-outs stand apart in the source and are kept apart here.
Experiments:
[1] = Solubility in artificial bile of sonicated, lyophilized sitostanol mixtures (Example 6); type: physicochemical; conditions: compared with lecithin and lysolecithin / SSL
Experimental: Solubility in artificial bile was determined by adding 8 mM sodium taurocholate 5 mM PC 0.15 M NaCl 15 mM sodium phosphate pH 7.4 (artificial bile), rotating for 30 min. at 37° and centrifuging at 17,000×g for 1 min. The pellet was washed once and the combined sups and pellet were counted separately.

serum cholesterol = conditions: cited from earlier work
cholesterol absorption = conditions: cited from earlier work
[2] = in vivo; cited from earlier work
[3] = test system: hypocholesterolemic activity; conditions: rat, in vivo; cited from earlier work
[4] = Solubility in artificial bile with variable amounts of lecithin, repeated extraction (Example 3); type: physicochemical; conditions: tenfold excess of lecithin
Experimental: Sitostanol, tracer amount of [^3 H]sitostanol, and other compounds that are found in the gut or that are commonly used as food additives were mixed together in chloroform solution at a fixed mole ratio. An aliquot, containing 1.2 μMol of sitostanol, was transferred to an evacuation tube and the solvent was removed under reduced pressure (<50 mtorr). The experiment was initiated by adding 0.5 mL of artificial bile (8 mM sodium taurocholate containing 5 mM soy lecithin and […], pH 7.4) followed by rotation at 8 rev/min for 30 min at 37° C. The tube was then centrifuged for 1 minute at 17,000×g to precipitate any solid material, the supernatant was removed and added to scintillation fluid for measurement of radioactivity, and the percent of radioactivity in the artificial bile supernatant was calculated. Table I below summarizes the solubility of sitostanol mixtures in the presence of artificial bile salt.
The effectiveness of variable amounts of lecithin to solubilize sitostanol was studied as in Example #1, except that after rotation at 37° for 30 min residual sedimenting sitostanol was re-extracted twice by vortexing with 0.5 ml additional artificial bile and recentrifuging. The following results were obtained:
When [^3 H]phosphatidylcholine was added as a tracer instead of [^3 H]sitostanol, the amount of lecithin solubilized was 93.3%. […]

[5] = Solubility of sitostanol mixtures dried from chloroform in artificial bile (Example 1); type: physicochemical; conditions: artificial bile (8 mM sodium taurocholate, 5 mM soy lecithin, pH 7.4), 37° C, 30 min; mixture dried from chloroform
Experimental: An aliquot, containing 1.2 μMol of sitostanol, was transferred to an evacuation tube and the solvent was removed under reduced pressure (<50 mtorr). The experiment was initiated by adding 0.5 mL of artificial bile (8 mM sodium taurocholate containing 5 mM soy lecithin and 0.15 mM NaCl, pH 7.4) followed by rotation at 8 rev/min for 30 min at 37° C. The tube was then centrifuged for 1 minute at 17,000×g to precipitate any solid material, the supernatant was removed and added to scintillation fluid for measurement of radioactivity, and the percent of radioactivity in the artificial bile supernatant was calculated.

With `CCCCCCCCCCCCCCCCCC(=O)OC(C)C(=O)OC(C)C(=O)[O-].[Na+]` (centres unmarked) [SSL, Sodium stearoyl-2-lactylate] as the compound, how does the “effectiveness in solubilizing sitostanol” value [1] read?
The value was “as effective as lecithin and lysolecithin”.

For `CC[C@H](CC[C@@H](C)[C@H]1CC[C@H]2[C@@H]3CC=C4C[C@@H](O)CC[C@]4(C)[C@H]3CC[C@]12C)C(C)C` [sitosterol], which “decrease of serum cholesterol levels” value (serum cholesterol; 3-9 g/day powdered sitosterol) is on record?
The value was 12%.

What about the “reduction of serum cholesterol” value (serum cholesterol; 5-18 g sitosterol/day) of the same compound?
The value was 16-20%.

Which “effect on cholesterol absorption” value (cholesterol absorption; given chronically (cholestyramine) or orally (neomycin)) does the source give for neomycin here?
Its value is “reduces cholesterol absorption effectively”.

For `CC[C@H](CC[C@@H](C)[C@H]1CC[C@H]2[C@@H]3CC[C@H]4C[C@@H](O)CC[C@]4(C)[C@H]3CC[C@]12C)C(C)C` [Sitostanol, sitostanol], which absorption [2] is on record?
The absorption was “non-absorbable”.

What about the “potency relative to other phytosterols” value [3] of the same compound?
The value was “more potent than other phytosterols”.

And the sitostanol remaining insoluble [4]?
Its sitostanol remaining insoluble is 32%.

What about the “Soluble Sterol” value [5] of the same compound?
The value was 2.3%.

And the “reduction of serum cholesterol” value (serum cholesterol; 1.5 g/day, severe hypercholesterolemia)?
Its value is 15%.

What about the “effect in moderate hypercholesterolemia” value (serum cholesterol; 3 g/day) of the same compound?
The value was “no effect”.

With sitostanol ester as the compound, how does the “less effective at reducing cholesterol absorption” value (cholesterol absorption; ester dissolved in dietary fat compared to the unesterified sterol, humans) read?
The value was 21%.

From patent publication US6063776A, “Sitostanol formulation with emulsifier to reduce cholesterol absorption and method for preparing and use of same” (Washington University, priority 1999, dated 2000)
